{"source": "patent US20140142333A1", "about": "“NOVEL ANILINE DERIVATIVES AND USE THEREOF” (NEOMICS Co, Ltd., priority 2011, published 2014)", "key": {"NCI-H460 [1]": {"tested_on": "NCI-H460", "experiment": "MTT assay on lung cancer cell line NCI-H460", "assay_type": "cell-based, human", "settings": "0.04 uM, 0.4 uM and 4 uM; 24, 48 and 72 hours; serum free RPMI; FIG. 6", "protocol": "Lung cancer cell line, NCI-H460, was cultured in RPMI (HyQ RPMI-1640, Hyclone) medium of streptomycin, containing 10% fetal bovine serum and 1% penicillin for 48 hours, and transferred to a 96-well plate. 12 hours later, the medium was replaced by serum free RPMI medium, and then the cell line was treated with the compound of Formula 1 at a concentration of 0.04 uM, 0.4 uM and 4 uM. 24 hours, 48 hours, and 72 hours later, MTT assay at each concentration was performed."}, "WI-26 cells": {"tested_on": "WI-26 cells", "experiment": "MTT assay on normal WI-26 cells (cytotoxicity)", "assay_type": "cell-based", "settings": "MTT assay after 48 hours; data not shown", "protocol": "As a result, 22 compounds were primarily screened. Normal cells, that is, WI-26 cells were treated with the 22 compounds."}, "NCI-H460 cells": {"tested_on": "NCI-H460 cells", "experiment": "nude mouse transplanted with NCI-H460 cells, tumor growth inhibition", "assay_type": "in vivo", "settings": "salt form, 50 mg/kg once a day, 27 days", "protocol": "A nude mouse transplanted with NCI-H460 cells (human-derived lung cancer cell line) was administered with the […], through intra-abdominal cavity and intra-subcutaneous injection. Then, a growth inhibiting effect of a tumor was tested. Mice were divided into three groups such as a negative control group, and groups administered with a test material in doses of 50 and 100 mg/kg. Each group included 10 mice. The negative control group was administered with a mixture solution containing DMSO (excipient), Tween80, PEG400, and injection water, and the groups administered with the test material in doses of 50 mg/kg were administered with the inventive compound once a day, for 27 days including an autopsy day, 28 times in total (4 times for intra-abdominal cavity injection and 24 times for intra-subcutaneous injection.\nDuring the observation period, general symptoms were observed once a day, and the body weight of an animal and the volume of a tumor were measured twice a week. On the day before autopsy, all individuals were fasted for 18 hours or more. On the day of autopsy, 0.5, 1 and 2 hours 1 after the test material was administered, from 3 mice, 3 mice and 4 mice from respective groups, blood was collected and tumor was extracted.\nThe collected blood was placed in an EDTA-containing tube, and centrifuged to separate plasma. The extracted tumor was weighed. Half of the plasma and the tumor were rapidly frozen by liquid nitrogen and placed in a frozen state, and the rest were fixed with 10% neutral buffered formalin solution and sent to a test client."}, "NCI-H460 [2]": {"tested_on": "NCI-H460", "experiment": "FACS assay of apoptosis in NCI-H460", "assay_type": "cell-based, human", "settings": "medium containing 2% FBS; FIG. 7", "protocol": "Lung cancer cell line, NCI-H460, was cultured in RPMI (HyQ RPMI-1640, Hyclone) of streptomycin, containing 10% fetal bovine serum, and 1% penicillin. In order to investigate the effect of the inventive compound on a cell cycle, cells were treated with the inventive compound and cultured in medium containing 2% FBS. The cells were collected and subjected to FACS assay."}}}
{"smiles": "CCOC(=O)CC(=O)Nc1ccc(C(=O)O)cc1", "note": "[P.C]", "values": [{"measurement": "cell death of lung cancer cells (MTT)", "setting": "NCI-H460 [1]", "result": "cell death depending on treating time and concentration"}, {"measurement": "cytotoxicity in normal WI-26 cells", "setting": "WI-26 cells", "result": "no cytotoxicity"}, {"measurement": "body weight of mouse vs control group", "setting": "NCI-H460 cells; FIG. 10", "result": "no difference"}, {"measurement": "tumors observed (photograph) vs control group", "setting": "NCI-H460 cells; FIG. 12", "result": "visibly significantly reduced"}, {"measurement": "weight of tumor vs control group", "setting": "NCI-H460 cells; at autopsy, FIG. 11", "result": "significantly reduced"}, {"measurement": "volume of the tumor vs control group", "setting": "NCI-H460 cells; intra-abdominal and subcutaneous injection, FIG. 9", "result": "significantly reduced"}, {"measurement": "apoptosis rate of cancer cells (FACS)", "setting": "NCI-H460 [2]", "result": "concentration-dependently improves apoptosis rate"}]}
